Our source for the melting point values is a melting point compilation (Tetko et al.; mined from patent text by program, amines drawn as free bases though some values may be those of a salt).

In general, melting point refers to the temperature of the solid-liquid transition.

Molecules are shown by their SMILES.

In turn, `FC(F)(F)Oc1ccc(Nc2cc(-c3ccccc3)nc(-c3ccccc3)n2)cc1` had a melting point of 220 to 222 °C.
Consider `CCCCCc1cc(O)c2c3c(c(=O)oc2c1)SC(C)C3` (stereo unspecified), for which the melting point is 188 to 190 °C.
In turn, `COC(=O)c1cccc(OC2CCOc3ccc(OCc4ccccc4)cc3C2=O)c1` (stereo unspecified) gave a melting point of 134 to 136 °C.
In turn, `Cn1nc(-c2cccnc2)c(C=Cc2ccccc2C(=O)O)c1Cl` showed a melting point of 183 to 185 °C.
As to `COC(=O)c1ccc(CCc2nc(-c3ccccc3)c(C)s2)cc1`, the melting point fell in the range of 52 to 53 °C.
In the case of `CCCCOc1cccc(CCNC(=O)C(Br)=Cc2ccccc2)c1` it was 38 to 39 °C; in that of `COc1ccc(-c2noc3c2C(c2cc(OC)c(OC)c(OC)c2)C2=C(COC2=O)N3)cc1` (stereo unspecified), 218 to 219 °C.
Consider `COC(=O)Cn1c(Cc2ccccc2)ccc(NC(=O)CCCc2ccccc2)c1=O`, for which the melting point fell in the range of 93 to 95 °C.
In the case of `COc1ccc(OC)c(NC(=O)c2cccc3cc(O)ccc23)c1` it was 165 to 166 °C; in that of `Cc1ccnc2[nH]c(=O)c(CC(=O)O)cc12`, above 250 °C.
In turn, `N#Cc1nn(-c2c(Cl)cc(C(F)(F)F)cc2Cl)c(N)c1-c1ccoc1Cl` yielded a melting point of 153 °C.
The result for `Cc1[nH]c2ccc(O)cc2c1C(=O)NC1CCN(CCc2ccccc2)CC1` reads 232 to 236 °C; that for `CC(C)(C)c1ccc(/C=N/OCCOc2ccc(C(=O)O)c(OC(=O)c3ccc(C(C)(C)C)cc3)c2)cc1`, 148 to 150 °C; that for `CSc1nn(C(=O)NC(C)(C)C)c(=O)n1N`, 134 °C.
The result for `NS(=O)(=O)c1cccc(NC(=O)c2cnn3c(C(F)(F)F)cc(-c4ccc(Cl)cc4)nc23)c1` reads 260 °C.
As for `CCC(C(=O)O)c1cccc(C(=O)c2cc3ccsc3s2)c1` (stereo unspecified), the melting point turned out to be 143 °C.
In the case of `CCC1C2C(C(=O)N1Cc1ccc3c(c1)OCO3)C(c1ccc(C#N)cc1)N1CCCC21` (stereo unspecified) it was 150 to 151 °C; in that of `COC(=O)c1ccc(S(C)(=O)=O)c(COC(C)=O)c1Cl`, 165 to 168 °C.
`Cc1cc(OCCNC(=O)C2Cc3ccccc3N2S(=O)(=O)c2ccc(-c3ccccc3C(F)(F)F)cc2)ccc1CC(=O)O` (stereo unspecified): the melting point fell in the range of 85 to 95 °C.
In the case of `CC(C)(OCc1nn(Cc2ccccc2)c2ccccc12)C(=O)N1CCOCC1`, the melting point lay in the range of 135 to 137 °C.
With `NS(=O)(=O)c1ccc(-c2[nH]c3ccccc3c2-c2ccc(Br)cc2)cc1`, the melting point is 277 to 279 °C.
The compound `COC(=O)C1CCc2ccc(O)cc2C1` (stereo unspecified) returned a melting point of 83 to 84 °C.
`CCCN1C(=O)C2(c3ccccc3)CC(c3ccc([N+](=O)[O-])cc3)(C2)C1=O` returned a melting point of 144 to 146 °C.
In turn, `CC1(C)CN=C2N(C1)c1ccc(Br)cc1C21OCCCO1` gave a melting point of 151 to 153 °C.
Regarding `N#Cc1cccnc1N1CCN(CC(=O)Nc2ccccc2F)CC1`, the melting point lay in the range of 78 to 79 °C.
For `COc1cc2c(cc1O)CCN(C(=O)c1ccc(C#N)cc1)C2=O`, the melting point is 198 to 199 °C.
Compound `Brc1ccc2c(c1)C1(c3ccccc3-c3ccccc31)c1ccccc1-2` returned a melting point of 181 to 183 °C.
`CCCc1c(OCCCOc2cc(N)c(Cl)cc2C)ccc(C(C)=O)c1O` showed a melting point of 81 °C.
With `CC(=O)Nc1ccccc1Oc1ccc(C#N)c(C#N)c1`, the melting point was 152 to 154 °C.
The compound `CC(=O)ON=Cc1cccc2c1C=Cc1ccccc1S2` showed a melting point of 144 to 145 °C.
For `CCCc1ccc2nc(SCC)c(S(N)(=O)=O)n2n1`, the melting point was in the range of 176 to 177 °C.
As for `CC(C)Cn1c(CNC(=O)OC(C)(C)C)c(-c2cccs2)c2cc(C#N)ccc2c1=O`, the melting point fell in the range of 189 to 190 °C.
`Cc1nnc2cnc(-c3ccccc3)cn12` registered a melting point of 192 to 195 °C.
`O=C(OCC=Cc1ccccc1)c1cccc2nnsc12` displayed a melting point of 70 to 72 °C.
For the compound `CCn1c(-c2ccccc2)c(C2=CCC(C(=O)O)CC2)c2ccccc21` (stereo unspecified), the melting point was 147 to 150 °C.
Compound `Cc1ccc(-c2c3ccccc3c(-c3ccc(C)cc3)c3cc(Cl)ccc23)cc1` gave a melting point of 202 to 204 °C.
In turn, `O=[N+]([O-])c1ccc(Oc2ccc(Cl)cc2)cc1` gave a melting point of 67 to 70 °C.
In the case of `COC(=O)[C@H](Cc1ccc([N+](=O)[O-])cc1)NC(C)=O` it was 126 °C; in that of `COc1ccc2c(c1)c(COC(C)(C)C(=O)O)nn2Cc1ccccc1`, 128 to 130 °C; in that of `COC(=O)c1ccc(-c2nn(Cc3ccccc3)c3ccc([N+](=O)[O-])cc23)o1`, 134 to 135 °C.
On to `CCOP(=O)(/C=C/c1cn(-c2ccccc2)nc1OCc1ccc(OCc2coc(-c3ccco3)n2)c(OC)c1)OCC`, for which the melting point fell in the range of 96 to 97 °C.
The result for `CC(C)(Oc1ccc(NC(=O)Oc2ccc(Cl)cc2)cc1)C(=O)O` reads 179 to 182 °C; that for `CCCc1c(C(=O)C(C)C)c2ccc(C(=O)OC)cc2n1Cc1c(Cl)cccc1Cl`, 130 to 132 °C; that for `CC(=O)OCC1CCc2c(C3=C(c4cn(C)c5ccccc45)C(=O)OC3=O)c3ccccc3n2C1` (stereo unspecified), 190 to 193 °C.
For `Cc1nn(CCc2ccccc2)cc1C(=O)Nc1ccc(N2CCC(N3CCOCC3)CC2)c(C#N)c1`, the melting point stood at 188 °C.
The compound `COCNC(=O)NC1CC(C)(C)N(C)C(C)(C)C1` returned a melting point of 105 °C.
The result for `CCOc1cc(N(CC)CC)ccc1C1(c2ccc(N(C)C)cc2N(C)C)OC(=O)c2ccccc21` (stereo unspecified) reads 146 to 150 °C; that for `CC(C)c1nn(Cc2ccc(Cl)cc2Cl)cc1CCCOc1cc(CCC(=O)O)n(-c2ccccc2)n1`, 105 to 107 °C.
As for `COC(=O)c1c[nH]c(C(=O)c2ccc(C)cc2)c1`, the melting point was in the range of 155 to 159 °C.
`CCOC(=O)C1=C(N2CCCC2)N=C(C)C(C(=O)OC)C1c1cccc([N+](=O)[O-])c1` (stereo unspecified) displayed a melting point of 103 °C.
The compound `CC1(C)C2CCC1(CNC(=O)CBr)CC2` gave a melting point of 89 °C.
In the case of `O=C(O)C1Sc2ccccc2-c2[nH]c3ccccc3c21` (stereo unspecified), the melting point was 142 °C.
Compound `Cc1nn(-c2c(Cl)cc(C(F)(F)F)cc2Cl)nc1CBr` returned a melting point of 98 to 100 °C.
`O=C(Nc1cccc(S(=O)(=O)NCC2CC2)c1)c1cnn2c(C(F)F)cc(-c3ccc(C(F)(F)F)cc3)nc12` displayed a melting point of 238 °C.
Turning to `Cn1c(C(F)(F)F)cc(=O)n(-c2cc(OCCC3OCCO3)c(Cl)cc2F)c1=O`, the melting point lay within 125 to 127 °C.
The compound `COc1ccc(Cl)cc1-c1nnn(-c2ccc(Cl)cc2Cl)c1N` gave a melting point of 154 to 155 °C.
`CCCCOc1c(OC)c(OC)cc(C)c1C(=O)c1c(Cl)cccc1Cl` returned a melting point of 70 °C.
Regarding `CC(C)c1ccc(C2c3[nH]c4ccccc4c3CCN2C(=O)C=Cc2cccc([N+](=O)[O-])c2)cc1` (stereo unspecified), the melting point was determined as 195 °C.
Compound `OCc1cccnc1Oc1ccc(F)cc1` returned a melting point of 70 to 72 °C.
As for `CCc1c(OC)nc2nc(C(N)=O)cn2c1C`, the melting point was in the range of 256 to 259 °C.
Compound `CC(C)(C)OC(=O)NCCC(=O)c1c(Cl)cccc1[Si](C)(C)C` displayed a melting point of 51 to 52 °C.
In the case of `CC(C)(C)OC(=O)[C@H](CSSC[C@H](NC(=O)OCc1ccccc1)C(=O)OC(C)(C)C)NC(=O)OCc1ccccc1`, the melting point was in the range of 77 to 78 °C.
`CCOCCOc1c(C)cc(Oc2ccc3c(c2)C=C(C(=O)O)CCS3(=O)=O)cc1C` had a melting point of 149 to 153 °C.
For the compound `Cc1cccc2c(=O)[nH]c(=O)[nH]c12`, the melting point came to 170 °C.
`O=C(O)C1CC(=O)N(Cc2ccccc2)C1c1c(Cl)cccc1Cl` (stereo unspecified) had a melting point of 179 to 181 °C.
In the case of `O=C(NC1CC(=O)c2ccccc2C1)OCc1ccccc1` (stereo unspecified) it was 79.5 to 81.5 °C; in that of `CCCn1c(COC)nc2c(N)nc3ccc(OCCC4CCCN4C)cc3c21` (stereo unspecified), 155 to 157 °C; in that of `N=c1nc(Cl)cc(N)n1O`, 193 °C.
As to `CCc1cc2c(c(CC)n1)CCC(=O)N2Cc1ccc(-c2ccccc2-c2nnn(C(c3ccccc3)(c3ccccc3)c3ccccc3)n2)cc1`, the melting point is 165 to 167 °C.
The result for `COC(=O)COc1ncccc1Oc1cc(N2C(=O)C=C(C(F)(F)F)CC2=O)c(F)cc1Cl` reads 75.3 °C.
Turning to `CCCCC1(C2CCCC2)Cc2cc(O)c(Cl)c(Cl)c2C1=O` (stereo unspecified), the melting point is 160 °C.
The result for `O=C(O)C1=Cc2cc(Cl)cc(Br)c2OC1C(F)(F)F` (stereo unspecified) reads 228 to 229 °C; that for `O=C(OCc1ccccc1)N1CCSC1=S`, 72 °C; that for `COc1ccc2c(c1)CCCCN2C(=O)Nc1cccc(C(F)(F)F)c1`, 108 °C.
In the case of `O=C1Nc2ccccc2SC1CCBr` (stereo unspecified), the melting point is 151 to 152 °C.
On to `CCC(CC)Oc1nn(C)c(=O)c2c1ccn2-c1c(C)cc(C)cc1C`, for which the melting point was 87 to 88 °C.
As to `CC(C)c1ccc(S(=O)(=O)n2c(CBr)cc3cc(C(F)(F)F)ccc32)cc1`, the melting point amounted to 100 °C.
`O=C(O)Cc1ccc(NC(=O)C(COc2cccc(Cl)c2)NS(=O)(=O)c2ccc(F)cc2)cc1` (racemic) displayed a melting point of 195 to 197 °C.
For the compound `CCCCc1nc2cccc(C=O)c2n1Cc1ccccc1Cl`, the melting point is 114 to 115 °C.
Compound `COc1cc(CN2CCN(c3ccc(C(=O)NC4CC4)cc3F)CC2)cc2c1OC(C)C(=O)N2` (stereo unspecified) returned a melting point of 233 °C.
For the compound `O=[N+]([O-])c1ccc(Oc2c(Cl)cc(S(=O)(=O)Nc3nc(-c4cccc([N+](=O)[O-])c4)cs3)cc2Cl)cc1`, the melting point was above 250 °C.
The result for `COC(=O)Oc1ccc(N=Cc2ccc(C#N)cc2)cc1` reads 145 to 146 °C; that for `CNc1ccc2sc3ccc(Br)cc3c(=O)c2c1`, 198 to 200 °C; that for `NCc1c(NC2CCCCC2)cccc1-c1ccccc1`, 95 to 96 °C.
Regarding `CN1CCC(N=[N+]=[N-])(c2ccccc2)C(O)C1` (stereo unspecified), the melting point fell in the range of 170 to 171 °C.
The compound `CC1(C)C(C=C2CCSC2=O)C1C(=O)OC(C#N)c1ccc(F)c(Oc2ccccc2)c1` (stereo unspecified) gave a melting point of 131 °C.
